Laboratory results reported in a melting point compilation (Tetko et al.; mined from patent text by program, amines drawn as free bases though some values may be those of a salt).

| Structure (SMILES) | melting point |
| --- | --- |
| CN(C)[C@H]1CCN(c2c(-c3ccccc3)cc(C#N)c3oc(C(C)(C)C)cc23)C1 | 46 to 48 °C |
| NCCc1ccc(OCCC(=O)O)cc1 | 216 °C |
| CCCCn1ccc(-c2ccc(Oc3ccnc(C)c3)cc2F)c(C#N)c1=O | 127 °C |
| CN(C)CC1CCc2cc(OCc3ccc(NC(=O)c4cc5ccccc5s4)cc3)ccc2C1 (centres undefined) | 165 to 169 °C |
| CC(C)CNCc1ccc(S(=O)(=O)c2ccc(S(N)(=O)=O)s2)cc1 | 198 to 200 °C |
| O=C1CCC(c2ccc(NC3=NCCO3)cc2)=NN1 | 332 to 333 °C |
| CN(C)c1cncc(I)n1 | 46 to 48 °C |
| CCN(CC)C(=O)Oc1nc(C)c2cc(OC)c(OC)cc2c1NC(N)=O | 215 to 216 °C |
| Brc1ccc(-c2ccc(C=CC3COC4(CCCCC4)OO3)cc2)cc1 (centres undefined) | 118 to 120 °C |
| CC(C)(O)c1ccc(C(=O)Nc2cn3cc(-n4ccnc4)ccc3n2)cc1 | 281 to 282 °C |
| Cn1ncnc1COc1nc2c(cnn2-c2ccccc2)cc1C(C)(C)C | 143 to 145 °C |
| Cc1sc(-c2cnc3ccccc3c2)nc1O | 279 to 280 °C |
| COc1cc(N)c(Cl)cc1C(=O)N[C@H]1CCN(CCNc2nc3ccccc3[nH]2)C[C@H]1OC (relative stereo) | 206 °C |
| Cc1ccc(-c2c(N(C)C(=O)OC(C)(C)C)n(CC(C)C)c(=O)c3ccc(OCc4ccccc4)cc23)cc1 | 164 °C |
| CSc1ccc(C2=C(c3ccc(Cl)cc3)CCC2)cc1 | 72 to 74 °C |
| CCC1(CCCCN2CCN(c3cccc4c3OCCO4)CC2)C(=O)Nc2cc(F)ccc21 (centres undefined) | 146 to 147 °C |
| O=C1Nc2ccccc2SC1CO (centres undefined) | 156 to 157 °C |
| CC(C)CC1(C(CCNC(=O)c2ccc(F)c(F)c2)C(=O)OC(C)(C)C)CCN(CCc2ccccc2)C1=O (centres undefined) | 147 to 148 °C |
| O=C(c1c(F)cccc1F)N1CS(=O)(=O)CN(c2ccc(Cl)cc2)C1=O | 274 to 275 °C |
| CSCCCCn1c(C)nc2c(N)nc3ccccc3c21 | 190 to 193 °C |
| COc1cc(C(=O)N2CCCC(CCN3CCC(C(=O)c4nc5ccccc5n4Cc4ccc(F)cc4)CC3)(c3ccc(Cl)c(Cl)c3)C2)cc(OC)c1OC (centres undefined) | 93 to 95 °C |
| CCC(Oc1ccc(C)c(C)c1)C(=O)OC1CC(O)C=C2C=CC(C)C(CCC3CC(O)CC(=O)O3)C21 (mixture of isomers) | 137 to 139 °C |

| Structure (SMILES) | melting point |
| --- | --- |
| CCCCC(=O)NC(=O)C(c1ccccc1)c1ccccc1 | 83 °C |
| O=C(NC1(C(=O)Nc2nncs2)CCCC1)OCc1ccccc1 | 229 to 233 °C |
| CC(C)(C)OC(=O)N[C@H]1CCCCNC1=O | 147 to 149 °C |
| CC(C)C(C)(C)[Si](C)(C)OC1CCC2(C)C(=CC=C3C4CCC(=O)C4(C)CCC32)C1 (centres undefined) | 119 to 125 °C |
| CCCCN(CCCC)CCNC(=O)c1cccc(NC(=O)N2CCc3cc(SC)c(C(F)(F)F)cc32)c1 | 128 to 130 °C |
| CCc1[nH]n(C2CCCC2)c2nc(-c3ccc4c(c3)CC(C)O4)nc(=O)c1-2 (centres undefined) | 164 to 165 °C |
| CN(C(=O)c1cnc2c(C(F)(F)F)cccc2c1-c1ccccc1)c1ccccc1 | 188 to 190 °C |
| FC(F)(F)c1cccc(N2CCN(Cc3ccc4c(c3)NCCN4)CC2)c1 | 88 to 91 °C |
| CCOC(Cc1ccc(OCc2nc(C3CC3)oc2C)c2ccccc12)C(=O)O (centres undefined) | 166 to 168 °C |
| O=C1CC(CO)N1C(c1ccccc1)c1ccccc1 (centres undefined) | 101 to 102 °C |
| Fc1ccc(-c2c[nH]c([C@@H](NC3CCC3)C3CCCCC3)n2)cc1 | 170 to 172 °C |
| COCc1cccc(C=CC(O)c2ccccc2)c1NC(=O)CC1c2ccccc2Oc2ccccc21 (centres undefined) | 204 to 206 °C |
| CC(C)(C)c1cc(-c2nn(C(=O)c3cccs3)c3ncccc23)cc(C(C)(C)C)c1O | 240 to 242 °C |
| CC(=O)NCCNc1nc(-c2ccc(=O)n(C(C)C)n2)c(-c2ccccc2)nc1N | 147 to 149 °C |
| COc1ccc2c3c1OC1C(=O)C=CC4C(C2)N(C)CCC314 (centres undefined) | 177 to 180 °C |
| N#CCC(C#N)NNc1c(Cl)cc(C(F)(F)F)cc1Cl (centres undefined) | 101 to 102 °C |
| Fc1cccc(COc2ccc(Nc3ncnc4cc(C#Cc5nccs5)sc34)cc2Cl)c1 | 235 °C |
| O=C(O)CCNC(=O)CCC(=O)Nc1cccc2ccccc12 | 180 to 182 °C |
| CCN(CC)CCCNC(=O)Cn1ncc(-c2ccccn2)c1-c1ccccc1 | 82 to 83 °C |
| CCOc1ccc(OCc2ccc(OCc3nc(-c4ccccc4)oc3C)cc2)cc1CC(=O)O | 122 to 123 °C |
| CCOCc1cc(Cn2cc(C3c4ccccc4C=Cc4ccccc43)c(=S)[nH]c2=O)cc(C(=O)O)c1 | > 240 °C |
| O=C1Nc2c(F)cc(CN3C(=O)CSC3=O)cc2C1=Cc1cc(CN2CCOCC2)c[nH]1 | 246 to 248 °C |

| Structure (SMILES) | melting point |
| --- | --- |
| COc1ccc(CCN(C)CCc2ccc(NC(=O)c3cccc4c(=O)c5ccccc5sc34)cc2)cc1OC | 154 °C |
| CN(C)CCC1Cc2ccccc2C(C)(O)c2ccccc21 (centres undefined) | 162 °C |
| CN1CCN(C2=Nc3cc(C(F)(F)F)ccc3Nc3nn(C)nc32)CC1 | 109 to 111 °C |
| COc1c(CN2C(=O)c3ccccc3C2=O)c2c(c3c1OC(C)(C)C3)C(c1ccccc1)=NC(C)(C)C2 | 193 to 195 °C |
| O=C(O)c1cn(-c2ccc(F)cc2F)c2c(F)c(N3Cc4ccc(Cl)cc4C3)c(F)cc2c1=O | 242 to 247 °C |
| NC(=O)Cn1cc2c(c1)-c1ccc(Cl)cc1C(c1ccccc1)=NC2 | 236 to 237 °C |
| Nn1cccc1C(=O)c1ccccc1Cl | 76 to 78 °C |
| NC(=O)N(O)CCOCc1cccs1 | 91 to 92 °C |
| Cc1ccccc1C(=O)c1ccc(CC#N)n1C | 90 to 92.5 °C |
| CCCCCc1ccc(C=Cc2cc3sc(C=Cc4ccc(CCCCC)cc4)cc3s2)cc1 | 320 °C |
| C=CCOc1ccc(-c2cc(N)n[nH]2)cc1 | 158 to 159 °C |
| CCCn1nc(-c2ccc(O)cc2)c2cccc(-c3ccc(F)cc3)c21 | 110 to 111 °C |
| Cc1ccc(C2OC(CO)C(O)C(O)C2O)cc1Cc1ccc(-c2ccc(F)nc2)s1 (centres undefined) | 130 to 132 °C |
| FC(F)(F)c1cccc2c(Cl)c3ccccc3c(Cl)c12 | 142 to 143 °C |
| COc1ccnc(CSc2nc3c(C)c(OC(F)F)c(C)cc3[nH]2)c1OC | 137 to 138 °C |
| CC(C)(C)OC(=O)N1CCC[C@@H](Nc2ncc3c(n2)-c2ccccc2[C@@H](c2ccc(Cl)c(Cl)c2)C3)C1 | 85 to 87 °C |
| NC(=O)NN=Cc1ccc(OCC2CCCCC2)cc1 | 218 to 219 °C |
| CC[C@H](COC)n1cc(Br)nc(N2CCc3cc(OC)c(F)c(Cl)c32)c1=O | 150 to 152 °C |
| NC12CC=CCC1CCc1ccc(O)cc12 (centres undefined) | 156 to 161 °C |
| CCC(CC)Nc1c(C)c(C)nc2c1c(C)nn2-c1c(C)cc(C)cc1C | 201 to 205 °C |

Now from value to compound:

| melting point | Structure (SMILES) |
| --- | --- |
| 175 °C | C=C(C)CN1Cc2cc(Cl)cc3[nH]c(=O)n(c23)CC1C (centres undefined) |
| 36 to 39 °C | CCCc1nc(C)cn1-c1cc(F)ccc1[N+](=O)[O-] |
| 144 to 145 °C | COC(=O)c1cc(O)c(O)c([N+](=O)[O-])c1 |
| 72 to 75 °C | CC(=O)C(=O)N[C@H](CO[N+](=O)[O-])Cc1ccccc1 |
| 253 to 256 °C | CC(=O)N1CCC(=O)NCc2cc([N+](=O)[O-])ccc21 |
| 210 to 212 °C | CC(=O)Nc1c(C(=O)c2ccccc2)[nH]c2ccc([N+](=O)[O-])cc12 |
| 237 to 238 °C | CCOC(=O)C(=O)CC(=O)c1cn(Cc2ccc3ccccc3n2)c2ccccc2c1=O |
| 205 to 206 °C | CC(=O)SCC(Cc1ccccc1)C(=O)Nc1cc(C(=O)O)cc(C(C)C)c1 (centres undefined) |
| 192 °C | O=C(NC(=O)c1c(F)cccc1F)Nc1cc(C(F)(F)F)c(F)cc1Cl |
| 226 to 228 °C | Nc1c(Br)cc(O)c2c1C(=O)c1ccccc1C2=O |
| 89 to 91 °C | Cc1ccc(S(=O)(=O)OCc2cc([N+](=O)[O-])ccc2F)cc1 |
| 57 to 59 °C | O=C(Nc1nccs1)/C(=C/C1CCCC1)c1ccc(Cl)c(Cl)c1 |
| 93 °C | COc1ccc(CNc2cc(F)cc(CO)c2)cc1 |
| 110 to 112 °C | CC1Cc2cccc(S(N)(=O)=O)c2N1 (centres undefined) |
| 202 to 208 °C | Cc1ccccc1-c1cc(C(=O)NC(=N)N)c2ccc(O)cc2n1 |
| 115 to 116 °C | COC(=O)CCC(=O)c1ccc(-c2ccc(Br)cc2)cc1 |
| 133 to 135 °C | Cn1c(C(F)(F)F)cc(=O)n(-c2cc(OS(=O)(=O)Cl)c(Cl)cc2F)c1=O |
| 214 to 216 °C | Nc1n[nH]c(-c2ccccc2)c1CC(=O)O |

| melting point | Structure (SMILES) |
| --- | --- |
| 177 to 178 °C | CC(=O)NC[C@H]1CN(c2ccc3c(c2)CCS(=O)(=O)C3)C(=O)O1 |
| 64 to 66 °C | COc1ccc(C=CBr)cc1O |
| 134 to 141 °C | Cc1cc(C(=O)NC2CCCCC2)ccc1[N+](=O)[O-] |
| 166 to 169 °C | CC(=O)N(c1cc2occc(=O)c2cc1Oc1ccccc1)S(C)(=O)=O |
| 173 to 175 °C | CCOC(=O)C(=O)Nc1ccc2cccc([N+](=O)[O-])c2c1NC(=O)C(=O)OCC |
| 195 to 197 °C | COc1nc(CC(=O)O)ccc1NC(=O)Nc1ccccc1Br |
| 130 to 132 °C | CCC(C)CNC(=O)c1cc(NC(=O)OCc2ccccc2)cc(C(=O)NCC(C)CC)c1 (centres undefined) |
| 234 to 236 °C | CCCNC(=O)Nc1c(C(=O)c2ccccc2)[nH]c2cc(Cl)ccc12 |
| 168 to 170 °C | COc1cc2c(cc1OC)C1(CCC2=O)CCC(=O)N(C)C1=O (centres undefined) |
| 297 to 299 °C | O=C(Nc1cc(Cl)c(Cl)c(Cl)c1)c1cc(Br)ccc1O |
| 86 to 88 °C | CC1(C)CON(Cc2c(Cl)cccc2[N+](=O)[O-])C1=O |
| 108 to 110 °C | CCOC(=O)c1cc(NC(C)=O)cnc1C(=O)OCC |
| 177 °C | COc1cc(O)c(C(=O)C=Cc2ccc(O)c(OC)c2)c(OC)c1 |
| 55 to 59 °C | Cn1cc(C(=O)N=C=O)c([N+](=O)[O-])n1 |
| 104 to 105 °C | Cc1cc(COc2ccc(CC(=O)O)cc2Cl)ccc1OC(C)C |
| 190 to 192 °C | CCn1cc(OC(=O)c2ccccc2)c(=O)c2ccccc21 |
| 80 to 81 °C | CC(=O)c1ccc2ccccc2c1OC(F)F |
